Measured values: patent EP4703362A1 (Chengdu Sibeibo Pharmaceutical Technology Co., Ltd, priority 2023, dated 2024)

Each molecule was assayed against T1, CGRP receptor complex (Homo sapiens, UniProt O60894+Q16602) (assay: determination of cell functional antagonism - cAMP determination). Conditions: not given.
T1 construct: host or cells: SK-N-MC
Type: cell-based
Description: 1.Experimental principle A CGRP receptor complex was coupled with Gs in G protein, the combination of CGRP and CGRP receptor complex led to Gs activation, and cAMP (3',5'-cyclic adenosine monophosphate) was produced. 2.Experimental purpose The ability of the compound of the present invention to inhibit CGRP-stimulated cAMP formation in SK-N-MC cells was determined. 3.Experimental materials 3.1Experimental cell line: SK-N-MC (neuroepithelioma cells) from National Science and Technology Infrastructure - Biomedical Materials and Cell Resources. 3.2Reagents and consumables
4.Experimental steps • 4.1Cell preparation: The SK-N-MC cells were resuscitated and cultured in advance, and a cell confluence degree should be 70%-80% before use. • 4.2A sample dilution, a tested compound and α-CGRP (human) were prepared. • 4.3Cell seeding and drug effect: The SK-N-MC cells were digested, centrifuged, then resuspended with the sample dilution, and inoculated into a 384-well plate. Each well was added with the α-CGRP (human) and the tested compound respectively, and blown and mixed evenly. The well plate was adhered with a sealing film, and placed on an enzyme-labeled incubator to incubate at 25°C. • 4.4cAMP determination: carried out according to LANCE Ultra cAMP Kit specification Eu-cAMP tracer and ULight-anti-cAMP working solutions were prepared in the dark, respectively added into the well plate, and blown and mixed evenly.

T1 sequence (Q16602 23-461): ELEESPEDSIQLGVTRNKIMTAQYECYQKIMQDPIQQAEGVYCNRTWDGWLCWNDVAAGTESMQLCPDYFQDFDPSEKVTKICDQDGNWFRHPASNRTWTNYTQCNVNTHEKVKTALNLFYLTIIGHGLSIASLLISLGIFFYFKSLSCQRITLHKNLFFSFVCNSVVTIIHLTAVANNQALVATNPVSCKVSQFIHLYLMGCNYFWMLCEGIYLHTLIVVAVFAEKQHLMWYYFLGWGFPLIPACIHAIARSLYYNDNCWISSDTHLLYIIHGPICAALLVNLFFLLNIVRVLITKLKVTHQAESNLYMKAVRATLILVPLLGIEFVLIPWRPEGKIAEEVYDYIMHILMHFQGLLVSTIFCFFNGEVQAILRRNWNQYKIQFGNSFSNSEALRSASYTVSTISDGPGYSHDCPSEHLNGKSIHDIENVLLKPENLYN
T1 sequence (O60894 27-148): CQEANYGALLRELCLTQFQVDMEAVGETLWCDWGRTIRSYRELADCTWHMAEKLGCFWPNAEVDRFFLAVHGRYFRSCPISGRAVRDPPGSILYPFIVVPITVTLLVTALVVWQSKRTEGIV

SMILES | IC50
Cc1cc(C[C@@H](NC(=O)N2CCC(c3cc4c([nH]c3=O)CCC4(C)C)CC2)C(=O)N2CCN(C3CCN(C)CC3)CC2)cc2cn[nH]c12 [Example 7] | 6.02 nM
Cc1cc(C[C@@H](NC(=S)N2CCC(c3cc4c([nH]c3=O)SCC4)CC2)C(=O)N2CCN(C3CCN(C)CC3)CC2)cc2cn[nH]c12 [Example 16] | 0.71 nM
Cc1cc(C[C@@H](NC(=O)N2CCC(c3cc4c([nH]c3=O)SCC4)CC2)C(=O)N2CCC(C)(N3CCCCC3)CC2)cc2cn[nH]c12 [Example 22, (R)-N-(3-(7-methyl-1H-indazole-5-yl)-1-(4'-methyl-[1,4'-bipiperidine]-1'-yl)-1-oxopropan-2-yl)-4-(6-oxo-2,3,6,7-tetrahydrothieno[2,3-b]pyridine-6-yl)piperidine-1-formamide] | 0.81 nM
Cc1cc(C[C@@H](NC(=S)N2CCC(c3cc4c([nH]c3=O)SCCC4)CC2)C(=O)N2CCN(C3CCN(C)CC3)CC2)cc2cn[nH]c12 [Example 23] | 1.12 nM
Cc1cc(C[C@@H](NC(=O)N2CCC(c3cc4c([nH]c3=O)[S+]([O-])CCC4)CC2)C(=O)N2CCN(C3CCN(C)CC3)CC2)cc2cn[nH]c12 (stereo partly drawn) [Example 32, N-((R)-3-(7-methyl-1H-indazole-5-yl)-1-(4-(1-methylpiperidine-4-yl)piperazine-1-yl)-1-oxopropan-2-yl)-4-(1-oxidation-7-oxo-3,4,7,8-tetrahydro-2H-thiopyrano[2,3-b]pyridine-6-yl)pipe ridine-1-formamide] | 0.29 nM
Cc1cc(C[C@@H](NC(=O)N2CCC(c3cc4c([nH]c3=O)SCC43CC3)CC2)C(=O)N2CCN(C3CCN(C)CC3)CC2)cc2cn[nH]c12 [Example 33, (R)-N-(3-(7-methyl-1H-indazole-5-yl)-1-(4-(1-methylpiperidine-4-yl)piperazine-1-yl)-1-oxopropan-2-yl)-4-(6'-oxo-6',7'-dihydro-2'H-spiro[cyclopropane-1,3'-thieno][2,3-b]pyridine-5'-yl)piperidine-1-formamide] | 0.37 nM
Cc1cc(C[C@@H](NC(=O)N2CCC(c3cc4c([nH]c3=O)[S+]([O-])CC4)CC2)C(=O)N2CCN(C3CCN(C)CC3)CC2)cc2cn[nH]c12 (stereo partly drawn) [Example 35, N-((R)-3-(7-methyl-1H-indazole-5-yl)-1-(4-(1-methylpiperidine-4-yl)piperazine-1-yl)-1-oxopropan-2-yl)-4-(1-oxidation-6-oxo-2,3,6,7-tetrahydrothieno[2,3-b]pyridine-5-yl)piperidine-1-formamide] | 0.69 nM
Cc1cc(C[C@@H](NC(=O)N2CCC(c3cc4c([nH]c3=O)SCC4)CC2)C(=O)N2CC3CC2CC3N2CCCCC2)cc2cn[nH]c12 (stereo partly drawn) [Example 36] | 4.61 nM
Cc1cc(CC(OC(=O)N2CCC(c3cc4c([nH]c3=O)SCCC4)CC2)C(=O)N2CCN(C3CCN(C)CC3)CC2)cc2cn[nH]c12 (stereo not drawn) [Example 41] | 0.38 nM

Same assay, conditions: inhibition of CGRP-stimulated cAMP formation in SK-N-MC cells

SMILES | IC50
Cc1cc(C[C@@H](NC(=O)N2CCC(c3cc4c([nH]c3=O)CSCC4)CC2)C(=O)N2CCN(C3CCN(C)CC3)CC2)cc2cn[nH]c12 [Example 13, (R)-N-(3-(7-methyl-1H-indazole-5-yl)-1-(4-(1-methylpiperidine-4-yl)piperazine-1-yl)-1-oxopropan-2-yl)-4-(2-oxo-2,5,6,8-tetrahydro-1H-thiopyrano[3,4-b]pyridine-3-yl)piperidine-1-for mamide] | 1.44 nM
Cc1cc(C[C@@H](NC(=O)N2CCN(c3cc4c([nH]c3=O)SCCC4)CC2)C(=O)N2CCN(C3CCN(C)CC3)CC2)cc2cn[nH]c12 [Example 18, (R)-N-(3-(7-methyl-1H-indazole-5-yl)-1-(4-(1-methylpiperidine-4-yl)piperazine-1-yl)-1-oxopropan-2-yl)-4-(7-oxo-3,4,7,8-tetrahydro-2H-thiopyrano[2,3-b]pyridine-6-yl)piperazine-1-for mamide] | 0.95 nM

Same assay, conditions: inhibition of CGRP-stimulated cAMP formation in SK-N-MC cells; read-out: IC50

IC50 | SMILES
0.65 nM | Cc1cc(C[C@@H](NC(=O)N2CCC(c3cc4c([nH]c3=O)SCC4(C)C)CC2)C(=O)N2CCN(C3CCN(C)CC3)CC2)cc2cn[nH]c12 [Example 2, (R)-4-(3,3-dimethyl-6-oxo-2,3,6,7-tetrahydrothieno[2,3-b]pyridine-5-yl)-N-(3-(7-methyl-1H-indazole-5-yl)-1-(4-(1-methylpiperidine-4-yl)piperazine-1-yl)-1-oxopropan-2-yl)piperidine-1-formamide]
7.83 nM | Cc1cc(C[C@@H](NC(=O)N2CCC(c3cc4c([nH]c3=O)CSC4)CC2)C(=O)N2CCN(C3CCN(C)CC3)CC2)cc2cn[nH]c12 [Example 11, (R)-N-(3-(7-methyl-1H-indazole-5-yl)-1-(4-(1-methylpiperidine-4-yl)piperazine-1-yl)-1-oxopropan-2-yl)-4-(2-oxo-1,2,5,7-tetrahydrothieno[3,4-b]pyridine-3-yl)piperidine-1-formamide]
15.4 nM | Cc1cc(C[C@@H](NC(=O)N2CCC(c3cc4c([nH]c3=O)CCS4)CC2)C(=O)N2CCN(C3CCN(C)CC3)CC2)cc2cn[nH]c12 [Example 17, (R)-N-(3-(7-methyl-1H-indazole-5-yl)-1-(4-(1-methylpiperidine-4-yl)piperazine-1-yl)-1-oxopropan-2-yl)-4-(5-oxo-2,3,4,5-tetrahydrothieno[3,2-b]pyridine-6-yl)piperidine-1-formamide]
0.39 nM | Cc1cc(C[C@@H](NC(=O)N2CCC(c3cc4c([nH]c3=O)SCC4)CC2)C(=O)N2CCC(N3CCN(C)CC3)CC2)cc2cn[nH]c12 [Example 19, (R)-N-(3-(7-methyl-1H-indazole-5-yl)-1-(4-(4-methylpiperazine-1-yl)piperidine-1-yl)-1-oxopropan-2-yl)-4-(6-oxo-2,3,6,7-tetrahydrothieno[2,3-b]pyridine-5-yl)piperidine-1-formamide]
0.37 nM | Cc1cc(C[C@@H](NC(=O)N2CCC(c3cc4c([nH]c3=O)SCC4)CC2)C(=O)N2CCC(N3CCCCC3)CC2)cc2cn[nH]c12 [Example 20, (R)-N-(1-([1,4'-bipiperidine]-1'-yl)-3-(7-methyl-1H-indazole-5-yl)-1-oxopropan-2-yl)-4-(6-oxo-2,3,6,7-tetrahydrothieno[2,3-b]pyridine-5-yl)piperidine-1-formamide]
1.02 nM | Cc1cc(C[C@@H](NC(=O)N2CCC(c3cc4c([nH]c3=O)SCCC4)CC2)C(=O)N2CCC(C)(N3CCCCC3)CC2)cc2cn[nH]c12 [Example 24, (R)-N-(3-(7-methyl-1H-indazole-5-yl)-1-(4'-methyl-[1,4'-bipiperidine]-1'-yl)-1-oxopropan-2-yl)-4-(7-oxo-3,4,7,8-tetrahydro-2H-thiopyrano[2,3-b]pyridine-6-yl)piperidine-1-formamide]
0.1 nM | Cc1cc(C[C@@H](NC(=O)N2CCC(c3cc4c([nH]c3=O)SCCC4)CC2)C(=O)N2CCC(N3CCCCC3)CC2)cc2cn[nH]c12 [Example 26, (R)-N-(1-([1,4'-bipiperidine]-1'-yl)-3-(7-methyl-1H-indazole-5-yl)-1-oxopropan-2-yl)-4-(7-oxo-3,4,7,8-tetrahydro-2H-thiopyrano[2,3-b]pyridine-6-yl)piperidine-1-formamide]
1.24 nM | Cc1cc(CC(CC(=O)N2CCC(c3cc4c([nH]c3=O)SCCC4)CC2)C(=O)N2CCN(C3CCN(C)CC3)CC2)cc2cn[nH]c12 (stereo not drawn) [Example 27, 2-((7-methyl-1H-indazole-5-yl)methyl)-1-(4-(1-methylpiperidine-4-yl)piperazine-1-yl)-4-(4-(7-oxo-3,4,7,8-tetrahydro-2H-thiopyrano[2,3-b]pyridine-6-yl)piperidine-1-yl)butane-1,4-dione]
2.05 nM | Cc1cc(CC(CC(=O)N2CCC(c3cc4c([nH]c3=O)SCC4)CC2)C(=O)N2CCN(C3CCN(C)CC3)CC2)cc2cn[nH]c12 (stereo not drawn) [Example 31, 2-((7-methyl-1H-indazole-5-yl)methyl)-1-(4-(1-methylpiperidine-4-yl)piperazine-1-yl)-4-(4-(6-oxo-2,3,6,7-tetrahydrothieno[2,3-b]pyridine-5-yl)piperidine-1-yl)butane-1,4-dione]
3.47 nM | Cc1cc(C[C@@H](NC(=O)N2CCC(c3cc4c([nH]c3=O)SCCC4)CC2)C(=O)N2CC3CC2CC3N2CCCCC2)cc2cn[nH]c12 (stereo partly drawn) [Example 40, N-((2R)-3-(7-methyl-1H-indazole-5-yl)-1-oxo-1-(5-(piperidine-1-yl)-2-azabicyclo[2.2.1]hept-2-yl)propan-2-yl)-4-(7-oxo-3,4,7,8-tetrahydro-2H-thiopyrano[2,3-b]pyridine-6-yl)piperidine-1-formamide]
0.27 nM | Cc1cc(CC(OC(=O)N2CCC(c3cc4c([nH]c3=O)SCC4)CC2)C(=O)N2CCN(C3CCN(C)CC3)CC2)cc2cn[nH]c12 (stereo not drawn) [Example 42, 3-(7-methyl-1H-indazole-5-yl)-1-(4-(1-methylpiperidine-4-yl)piperazine-1-yl)-1-oxopropan-2-yl-4-(6-oxo-2,3,6,7-tetrahydrothieno[2,3-b]pyridine-5-yl)piperidine-1-formate]

SMILES | IC50
Cc1cc(C[C@@H](NC(=O)N2CCC(c3cc4c([nH]c3=O)SCCC4)CC2)C(=O)N2C3CCC2CC(N2CCCCC2)C3)cc2cn[nH]c12 (stereo partly drawn) [Example 39, N-((2R)-3-(7-methyl-1H-indazole-5-yl)-1-oxo-1-(3-(piperidine-1-yl)-8-azabicyclo[3.2.1]octane-8-yl)propan-2-yl)-4-(7-oxo-3,4,7,8-tetrahydro-2H-thiopyrano[2,3-b]pyridine-6-yl)piperidine-1-formamide] | 0.13 nM

Same assay, conditions: inhibition of CGRP-stimulated cAMP formation, statement of the conclusion

IC50 values / inhibitory activities (in words) | SMILES
pM level | Cc1cc(C[C@@H](NC(=O)N2CCC(c3cc4c([nH]c3=O)SCC4(C)C)CC2)C(=O)N2CCN(C3CCN(C)CC3)CC2)cc2cn[nH]c12 [Example 2, (R)-4-(3,3-dimethyl-6-oxo-2,3,6,7-tetrahydrothieno[2,3-b]pyridine-5-yl)-N-(3-(7-methyl-1H-indazole-5-yl)-1-(4-(1-methylpiperidine-4-yl)piperazine-1-yl)-1-oxopropan-2-yl)piperidine-1-formamide]
